Where two headings read alike, the source gives them in different places.
Columns and labels:
T. cruzi = system: T. cruzi; set-up: method as in PMID 30517542; settings: free acid forms; read-out: IC50, antitrypanosomal activity; cited from earlier work
T. cruzi epimastigotes = assay: Trypanocidal activity against epimastigotes (XTT); assay type: cell-based, Trypanosoma cruzi; settings: for inhibition at 5 µM: read-out: inhibition of epimastigote proliferation; for IC50: 72 h incubation, read-out: IC50, epimastigote proliferation
Procedure: Trypanocidal activity against epimastigotes was assessed by XTT (2,3-bis(2-methoxy-4-nitro-5-sulfophenyl)-2H-tetrazolium-5-carboxanilide). Briefly, 1.5 × 10^6 epimastigotes were seeded per well in 96-well plates. The ecdysteroid was added at 8 concentrations ranging from 25 to 0.2 μM for 72 h at 28 °C. […] Following the incubation period, the plates were examined under the microscope for sterility and growth of controls. To the plates, 50 μL of XTT and PMS (phenazine methosulfate, Sigma-Aldrich, MO, USA) solution (XTT and PMS at 0.5 and 0.025 mg/mL, respectively) was added, and the plates were then incubated at 28 °C for 3 h. The parasites were fixed by the addition of 50 μL of MeOH for 15 min before the absorbance was measured at 490 nm on a Tecan plate reader. Results were expressed as percentage cell viability relative to the vehicle control or IC50 values calculated by GraphPad Prism version 8.0. All assessments were performed in triplicates in three independent experiments.

[1] = system: T. cruzi (GFPY parasite release in trypomastigote-infected RAW264.7 cells); assay: FACS-based quantitation of released parasites from infected RAW264.7 cells; assay type: cell-based, Trypanosoma cruzi
Procedure: The host RAW264.7 cells were seeded in 24-well plates at a density of 20,000 cells/mL. The cells were allowed to adhere for 24 h and infected with trypomastigotes at a multiplicity of 10. On the next day, noninternalized trypomastigotes were washed away, and fresh RPMI with 2% hiFBS was added to the wells along with the C44 at various concentrations. […] Three independent experiments in triplicates were performed to determine the activity of the ecdysteroid.

[2] = system: T. cruzi amastigotes in CCL39 fibroblasts; assay: Fluorescence microscopy of amastigote replication in infected CCL39 fibroblasts; assay type: cell-based, Trypanosoma cruzi; settings: 5 μM, of infection
Procedure: The host CCL39 cells were seeded in 24-well plates at a density of 20,000 cells/mL. The cells were allowed to adhere for 24 h and infected with trypomastigotes at a multiplicity of 10. On the next day, non-internalized trypomastigotes were washed away, and fresh RPMI with 2% hiFBS was added to the wells along with the test substance. […] The images were analyzed on ImageJ.

RAW264.7 cells = assay: cells; assay type: cell-based
Procedure: Cytotoxicity or antiproliferative effects of ecdysteroid against mammalian cells was assessed using MTT (3-(4,5-dimethylthiazol-2-yl)-2,5-diphenyltetrazolium bromide). CHO or RAW264.7 cells were used for screening the compounds. Briefly, the cells were seeded at a density of 2000/well in 96-well plates. After 24 h of incubation at 37 °C and 5% CO2, ecdysteroid ([…]) was added to the cells at various concentrations. In all the experiments, podophyllotoxin was used as the positive control. In all experiments, vehicle controls were included, and the final DMSO concentration was below 0.5%. After 72 h, the plates were examined under an inverted microscope for sterility and growth of controls after the incubation period. The spent medium was removed, and 100 μL of fresh medium containing 0.5 mg/mL of the final concentration of MTT was added to the cells. The plates were incubated for 4 h at 37 °C in 5% CO2. The formazan crystals were solubilized by adding 200 μL of DMSO and mixed thoroughly. The absorbance was determined at 550 nm by using a Tecan plate reader. The values were corrected to the blank medium and vehicle control (DMSO only). Results were expressed as percentage cell viability relative to the vehicle control. Each assay was performed in technical triplicate in three independent experiments.

In the case of `COc1cc(C=CC(=O)O)cc(OC)c1OC` [3,4,5-trimethoxycinnamic acid], the IC50 (T. cruzi) is listed as greater than 600 µM.
For `COc1ccc(C=CC(=O)O)cc1` [4-methoxycinnamic acid (p-coumaric acid), 4-methoxycinnamic acid], the IC50 (T. cruzi) is listed as greater than 600 µM.
Compound `CC(C)(O)CC[C@H]1OC(C)(C)O[C@]1(C)[C@H]1CC[C@@]2(O)C3=C/C(=N\OC(C)(C)C)[C@@H]4C[C@H]5OC(C)(C)O[C@H]5C[C@]4(C)[C@H]3CC[C@]12C` [Compound 24] has an inhibition at 5 µM (T. cruzi epimastigotes; Trypanosoma cruzi, 72 h) of no less than 30%.
Compound `CC(C)(O)CC[C@H]1OC(C)(C)O[C@]1(C)[C@H]1CC=C2C3=C/C(=N/OC(C)(C)C)[C@@H]4C[C@H]5OC(C)(C)O[C@H]5C[C@]4(C)[C@H]3CC[C@@]21C` [Compound 28] has an inhibition at 5 µM (T. cruzi epimastigotes; Trypanosoma cruzi, 72 h) of no less than 30%.
With `CC(C)(O)CC[C@@H](OC(=O)/C=C/c1ccccc1)[C@](C)(O)[C@H]1CC[C@@]2(O)C3=CC(=O)[C@@H]4C[C@@H](OC(=O)/C=C/c5ccccc5)[C@@H](O)C[C@]4(C)[C@H]3CC[C@]12C` [Compound 39] the inhibition at 5 µM (T. cruzi epimastigotes; Trypanosoma cruzi, 72 h) was no less than 30%.
Compound `CC(C)(O)CC[C@@H](OC(=O)/C=C/c1ccccc1)[C@](C)(O)[C@H]1CC[C@@]2(O)C3=CC(=O)[C@@H]4C[C@@H](O)[C@@H](OC(=O)/C=C/c5ccccc5)C[C@]4(C)[C@H]3CC[C@]12C` [Compound 40] has an inhibition at 5 µM (T. cruzi epimastigotes; Trypanosoma cruzi, 72 h) of no less than 30%.
In the case of `CC(C)(O)CC[C@@H](O)[C@](C)(O)[C@H]1CC=C2C3=C/C(=N\OC(C)(C)C)[C@@H]4C[C@@H](O)[C@@H](O)C[C@]4(C)[C@H]3CC[C@@]21C` [Compound 42], the inhibition at 5 µM (T. cruzi epimastigotes; Trypanosoma cruzi, 72 h) is reported as less than 30%.
For `CC(C)(O)CC[C@@H](O)[C@](C)(O)[C@H]1CC=C2C3=C/C(=N/OC(C)(C)C)[C@@H]4C[C@@H](O)[C@@H](O)C[C@]4(C)[C@H]3CC[C@@]21C` [Compound 43], the inhibition at 5 µM (T. cruzi epimastigotes; Trypanosoma cruzi, 72 h) was less than 30%.
In the case of `CC(C)(O)CC[C@@H](O)[C@](C)(O)[C@H]1CC=C2C3=C/C(=N\OC(C)(C)C)[C@@H]4C[C@@H](O)[C@@H](OC(=O)/C=C/c5ccccc5)C[C@]4(C)[C@H]3CC[C@@]21C` [Compound 44], the IC50 ([1]; Trypanosoma cruzi, 144 h, trypomastigote-infected RAW264.7 cells, FACS after 6 days) is reported as 2.7 ± 0.1 µM, the “inhibition of trypomastigote release” value ([1]; infected RAW264.7 cells) is reported as “more than 95%” and the “inhibition of amastigote replication” value [2] is reported as “efficiently inhibits amastigote replication”. The “cytotoxicity on the host cells” value (RAW264.7 cells) was “moderate cytotoxicity”, the IC50 (RAW264.7 cells; Mus musculus, RAW264.7, MTT, 72 h of incubation, read-out: IC50, cell proliferation in RAW264.7 cells) was 11.6 ± 1.6 µM and the “selectivity, T. cruzi over RAW264.7 host macrophages” value (RAW264.7 cells; apparent selectivity, cytotoxicity toward T. cruzi vs host cells) was “more than 5 fold”. The IC50 (T. cruzi epimastigotes) was 1.7 ± 0.2 µM and the IC50 (T. cruzi epimastigotes; Trypanosoma cruzi, 72 h) was less than 2 µM.
In the case of `COc1ccc(/C=C/C(=O)O)c(OC)c1` [trans-2,4-dimethoxycinnamic acid], the IC50 (T. cruzi) is listed as greater than 600 µM.
